Results on six compounds are retold here after patent US11679109B2, “SMARCA degraders and uses thereof” (Kymera Therapeutics, Inc., priority 2019, dated 2023).

What all share (format): cell-based
The target in test [1] is T1, SMARCA2 (Homo sapiens, UniProt P51531). Briefly: MSD SMARCA2 degradation in A549 cell line. To be noted: A549 cells, 24 h; for DC50: read-out: SMARCA2 MSD A549 degradation 24 h: Average external-Abs DC50. The procedure:
Cells were seeded into 96-well plates (A549 cells: 2×10^4 cells/well/100 ul media) and incubated overnight. The next day, 200 nL compound were added into the intermediate plate with Echo (Labcyte 550) from source plate containing a 3-fold serial dilution from top concentration of 1 mM. The culture medium was changed with 80 ul of fresh medium and 80 uL of 2× compound solution was added into the well to make a final concentration of 1000 nM, 333.3 nM, 111.1 nM, 37.04 nM, 12.35 nM, 4.115 nM, 1.372 nM, 0.457 nM, 0.152 nM and 0 nM (DMSO). The wells were mixed and then incubated for 24 hours. The media was aspirated from the cultures and 60 ul pre-chilled PIPA lysis buffer (Boston BioProducts BP-115D) with protease/phosphatase inhibitor (Roche 05892791001/Roche 04906837001) was added into the well to lyze the cells for 20 minutes at 4° C. The MSD plate (L15XA) was coated with 40 uL cell lysate and incubated at 4° C. overnight. The next day, the plate was washed three times with TBST (CST #9997S), 150 ul/well. The MSD plates was blocked with 150 ul blocking buffer per well and shaked for 1 hr at RT, 600 rpm. The blocking buffer was 3% Blocker A (MSD, R93BA-4) in TBST. The MSD plate was washed three times with 150 uL/well of TBST and 25 ul/well of detection antibody (Rabbit anti-SMARCA2/BRM antibody, 100 μg/mL, ab223735) was added at final concentration of 1 ug/mL diluted in 1% Blocking buffer and shaken for 1 hour at RT, 600 rpm. The MSD plate was washed three times with 150 ul/well of TBST and 25 ul/well of SULFO-TAG anti-rabbit antibody (MSD, R32AB-1) was added at final concentration of 1 ug/ml diluted in 1% Blocking buffer and shaken for 1 hour at RT, 600 rpm. The MSD plate was washed three times with 150 uL/well of TBST and 150 ul/well of 2×MSD reading buffer diluted from 4× (MSD, R92TC-2) with water was added. Lastly, the MSD instrument was read.
The letter codes for SMARCA2 degradation potency (DC50) include: A (<100 nM), B (100-500 nM), C (501-1000 nM), and D (>1000 nM). The letter codes for the percentage of SMARCA degradation after 24 hours (Dmax %) include: A (>90% degradation), B (>70-90% degradation), C (50-70% degradation), and D (<50% degradation).

A further test concerns the target T2, SMARCA4 (Homo sapiens, UniProt P51532).
T2 construct: SMARCA2/SMARCA4 protein degradation selectivity in MV4-11 cells; endogenous in cells; host or cells: MV4-11
As to the kind of experiment: SMARCA4 Western blot MV4-11 degradation. As to conditions: MV4-11 cells, 24 h; for DC50: read-out: SMARCA4 MSD MV411 degradation 24 h: Mean external-Abs DC50; for Dmax: read-out: SMARCA4 MSD MV411 degradation 24 h: average Dmax %. The method, then:
Cells were seeded into 6-well plates (MV4-11: 4×10^6 cells/well/1 ml) and 1 ml of 2× compound solution was added into the well to make the final concentration and the plates were mixed well and incubated for 24 hours (No cytotoxicity was observed). The cell were collected with media and spun at 3000 rpm for 5 minutes. The supernatant was aspirated and the well and the cells were washed with cold PBS once and combined for centrifugation again; the supernatant aspirated again. 200 uL pre-chilled RIPA lysis buffer (Boston BioProducts BP-115D) with protease/phosphatase inhibitor (Roche 05892791001/Roche 04906837001) was directly added into the tube to lyze the cells for 20 minutes on ice. The cell lysate were collected into EP tubes and spun at 13000 rpm for 20 minutes and 72 uL supernatant was transferred to a fresh EP tube containing 18 uL of 5× loading buffer (Beyotime Bio P0015) to make the loading samples. The samples were heated to 100° C. for 10 minutes and cooled to RT and microcentrifuged. 20 uL of samples were loaded onto SDS-PAGE gel (Novex, WG1402BOX) and the gel was run at 80 V for 20 minutes and 120 V for 1.5 hours. The samples were electrotransfer to a NC membrane using wet-transfer method with 250 mA for 2.5 hours. The membrane was blocked with LICOR blocking buffer (LICOR, 927-50000) for 1 hour. The membrane was washed three times with TBST(CST #9997S), 5 minutes each. Incubation was performed with primary antibody prepared in blocking buffer with 0.1% Tween-20 (Solarbio, P8220) at 4° C. overnight (Anti-SMARCA2/BRM antibody (ab15597) 1:500; Anti-BRG1 antibody [EPR3912] (ab108318) 1:1000; Rabbit anti-Baf180 antibody [EPR15860] (Abeam,ab 196022) 1:1000; mouse anti-beta-Actin (8H10D10) (CST #3700) 1:10000). The membrane was washed three times with TBST, 5 minutes each. Incubation with secondary antibody was performed for 1 hour at RT (anti-rabbit IgG (Licor, 926-32211) 1:5000; anti-mouse IgG (LI-COR, 926-68070) 1:5000). The membrane was washed three times with 5 minutes each and lastly the LiCOR was read.
The letter codes for SMARCA2/4 degradation potency (DC50) include: A (<100 nM), B (100-500 nM), C (501-1000 nM), and D (>1000 nM). The letter codes for the percentage of SMARCA degradation after 24 hours (Dmax %) include: A (>90% degradation), B (>70-90% degradation), C (50-70% degradation), and D (<50% degradation).
For orientation: In western blotting, separated proteins are transferred to a membrane and probed.

For test [2], the target named is T1, SMARCA2. Briefly: SMARCA2 Western blot MV4-11 degradation. The arrangement: SMARCA2/SMARCA4 protein degradation selectivity in MV4-11 cells; endogenous in cells; host or cells: MV4-11. To be noted: MV4-11 cells, 24 h; for DC50: read-out: SMARCA2 MSD MV411 degradation 24 h: Mean external-Abs DC50; for Dmax: read-out: SMARCA2 MSD MV411 degradation 24 h: average Dmax %.

What is called Dmax is the greatest extent of degradation seen. What is called DC50 is the midpoint of the concentration-degradation curve.

T1 sequence (P51531 whole entry): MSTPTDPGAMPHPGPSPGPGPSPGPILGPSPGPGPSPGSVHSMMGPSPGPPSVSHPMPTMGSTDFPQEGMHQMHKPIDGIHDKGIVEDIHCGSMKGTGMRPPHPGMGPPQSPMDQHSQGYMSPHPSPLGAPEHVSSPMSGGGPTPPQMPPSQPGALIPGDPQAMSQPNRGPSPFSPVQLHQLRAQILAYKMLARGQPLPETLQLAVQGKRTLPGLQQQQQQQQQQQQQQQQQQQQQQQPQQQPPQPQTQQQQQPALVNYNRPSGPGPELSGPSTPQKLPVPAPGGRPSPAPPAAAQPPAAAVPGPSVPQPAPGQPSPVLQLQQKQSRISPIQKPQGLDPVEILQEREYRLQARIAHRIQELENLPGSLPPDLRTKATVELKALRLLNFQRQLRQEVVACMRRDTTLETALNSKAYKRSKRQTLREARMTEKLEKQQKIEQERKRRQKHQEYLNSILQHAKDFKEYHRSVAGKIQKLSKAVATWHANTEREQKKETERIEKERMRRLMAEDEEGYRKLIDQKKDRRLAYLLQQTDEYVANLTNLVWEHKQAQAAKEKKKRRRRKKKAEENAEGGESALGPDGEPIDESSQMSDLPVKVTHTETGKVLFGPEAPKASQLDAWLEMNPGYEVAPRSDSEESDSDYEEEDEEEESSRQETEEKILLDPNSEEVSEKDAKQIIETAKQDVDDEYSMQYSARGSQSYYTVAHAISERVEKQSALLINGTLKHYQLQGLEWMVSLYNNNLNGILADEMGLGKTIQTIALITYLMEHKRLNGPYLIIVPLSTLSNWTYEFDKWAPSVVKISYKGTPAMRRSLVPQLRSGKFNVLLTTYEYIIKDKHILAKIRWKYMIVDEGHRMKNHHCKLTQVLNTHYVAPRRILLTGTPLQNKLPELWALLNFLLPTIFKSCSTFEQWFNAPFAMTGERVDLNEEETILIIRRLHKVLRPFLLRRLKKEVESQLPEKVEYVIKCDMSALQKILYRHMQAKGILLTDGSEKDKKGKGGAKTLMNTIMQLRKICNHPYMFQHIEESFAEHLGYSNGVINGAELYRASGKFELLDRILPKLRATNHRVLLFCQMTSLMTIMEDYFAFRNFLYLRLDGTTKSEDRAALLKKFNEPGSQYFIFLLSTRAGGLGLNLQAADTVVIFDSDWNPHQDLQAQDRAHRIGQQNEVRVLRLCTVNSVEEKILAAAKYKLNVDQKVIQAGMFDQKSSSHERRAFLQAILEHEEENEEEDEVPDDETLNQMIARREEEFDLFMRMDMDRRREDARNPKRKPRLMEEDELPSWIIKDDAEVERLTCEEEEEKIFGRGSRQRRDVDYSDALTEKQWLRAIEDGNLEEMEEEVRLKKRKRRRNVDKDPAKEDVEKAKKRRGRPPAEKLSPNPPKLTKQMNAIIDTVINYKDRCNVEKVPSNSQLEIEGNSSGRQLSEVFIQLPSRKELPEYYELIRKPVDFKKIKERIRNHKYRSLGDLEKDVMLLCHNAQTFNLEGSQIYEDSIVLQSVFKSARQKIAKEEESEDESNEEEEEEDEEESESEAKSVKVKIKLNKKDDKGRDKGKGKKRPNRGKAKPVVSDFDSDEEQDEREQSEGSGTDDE
T2 sequence (P51532 whole entry): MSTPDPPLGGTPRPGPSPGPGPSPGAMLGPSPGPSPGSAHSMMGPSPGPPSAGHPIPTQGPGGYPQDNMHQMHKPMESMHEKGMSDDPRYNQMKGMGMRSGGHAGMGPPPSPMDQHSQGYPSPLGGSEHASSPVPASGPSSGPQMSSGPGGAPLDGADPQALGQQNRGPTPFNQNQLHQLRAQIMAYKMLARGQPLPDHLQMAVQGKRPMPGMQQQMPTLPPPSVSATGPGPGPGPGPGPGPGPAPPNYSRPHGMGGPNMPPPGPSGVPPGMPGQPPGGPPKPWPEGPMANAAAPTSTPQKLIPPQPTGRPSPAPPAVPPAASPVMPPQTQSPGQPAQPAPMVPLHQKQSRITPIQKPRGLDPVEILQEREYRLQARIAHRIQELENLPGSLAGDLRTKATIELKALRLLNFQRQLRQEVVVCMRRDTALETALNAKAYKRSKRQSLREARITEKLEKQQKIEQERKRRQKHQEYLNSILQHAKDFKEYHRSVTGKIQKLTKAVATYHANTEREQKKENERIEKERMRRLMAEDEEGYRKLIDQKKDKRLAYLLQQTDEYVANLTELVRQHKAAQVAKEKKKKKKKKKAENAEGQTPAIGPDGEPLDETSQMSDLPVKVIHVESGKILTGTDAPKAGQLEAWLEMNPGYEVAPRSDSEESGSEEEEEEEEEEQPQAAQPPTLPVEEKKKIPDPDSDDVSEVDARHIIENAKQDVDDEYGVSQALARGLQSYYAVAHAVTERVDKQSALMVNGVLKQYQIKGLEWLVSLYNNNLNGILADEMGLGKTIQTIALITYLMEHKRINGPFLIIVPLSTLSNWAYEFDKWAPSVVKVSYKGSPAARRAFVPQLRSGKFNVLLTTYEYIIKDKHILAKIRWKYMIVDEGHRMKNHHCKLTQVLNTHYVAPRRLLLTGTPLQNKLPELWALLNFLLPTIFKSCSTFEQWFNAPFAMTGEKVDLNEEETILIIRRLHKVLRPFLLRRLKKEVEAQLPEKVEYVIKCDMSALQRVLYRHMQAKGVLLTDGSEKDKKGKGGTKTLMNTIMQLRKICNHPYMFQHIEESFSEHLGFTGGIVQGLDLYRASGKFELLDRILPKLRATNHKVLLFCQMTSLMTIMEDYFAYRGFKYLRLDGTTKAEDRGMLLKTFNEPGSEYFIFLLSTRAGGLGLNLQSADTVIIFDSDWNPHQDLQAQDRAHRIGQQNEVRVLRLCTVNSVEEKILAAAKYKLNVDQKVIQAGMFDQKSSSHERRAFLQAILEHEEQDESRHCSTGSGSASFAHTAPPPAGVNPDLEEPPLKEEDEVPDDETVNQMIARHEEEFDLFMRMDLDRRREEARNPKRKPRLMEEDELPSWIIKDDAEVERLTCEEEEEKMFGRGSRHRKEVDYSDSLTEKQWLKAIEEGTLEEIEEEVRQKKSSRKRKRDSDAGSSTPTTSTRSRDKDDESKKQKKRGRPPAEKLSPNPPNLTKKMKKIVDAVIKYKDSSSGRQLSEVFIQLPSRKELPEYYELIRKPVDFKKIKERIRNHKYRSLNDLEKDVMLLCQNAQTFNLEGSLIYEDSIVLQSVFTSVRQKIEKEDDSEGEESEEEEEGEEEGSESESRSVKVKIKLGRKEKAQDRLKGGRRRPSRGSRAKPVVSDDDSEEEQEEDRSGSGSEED

`Cc1ncsc1-c1ccc(CNC(=O)[C@@H]2C[C@@H](O)CN2C(=O)[C@@H](NC(=O)[C@H]2CC3(C2)C[C@H](N2CCC(c4cnc(N5CCc6[nH]c7nnc(-c8ccccc8O)cc7c6[C@H]5C)nc4)CC2)C3)C(C)(C)C)cc1` (single isomer, unassigned) [I-40]: the Dmax was 70 to 90% at SMARCA2 [1], less than 50% at SMARCA4 and 70 to 90% at SMARCA2 [2]. In addition, the DC50 at SMARCA2 [1] is 100 to 500 nM; at SMARCA4, more than 1000 nM; on SMARCA2 [2] it was less than 100 nM.

For `Cc1ncsc1-c1ccc(CNC(=O)[C@@H]2C[C@@H](O)CN2C(=O)[C@@H](NC(=O)[C@H]2CC3(C2)C[C@H](N2CCC(c4cnc(N5CCc6[nH]c7nnc(-c8ccccc8O)cc7c6[C@H]5C)nc4)CC2)C3)C(C)(C)C)cc1` (single isomer, unassigned) [I-41], the DC50 at SMARCA2 [1] was 100 to 500 nM; at SMARCA4, more than 1000 nM; on SMARCA2 [2], less than 100 nM.

`Cc1ncsc1-c1ccc(CNC(=O)[C@@H]2C[C@@H](O)CN2C(=O)[C@@H](NC(=O)C2CC3(C2)CC(N2CCC(c4ccnc(N5CCc6[nH]c7nnc(-c8ccccc8O)cc7c6[C@H]5C)n4)CC2)C3)C(C)(C)C)cc1` (stereo partly drawn) [I-13, (2S,4R)-4-hydroxy-1-((S)-2-(6-(4-(2-((R)-3-(2-hydroxyphenyl)-5-methyl-7,8-dihydro-5H-pyrido[3′,4′:4,5]pyrrolo[2,3-c]pyridazin-6(9H)-yl)pyrimidin-4-yl)piperidin-1-yl)spiro[3.3]heptane-2-carboxamido)-3,3-dimethylbutanoyl)-N-(4-(4-methylthiazol-5-yl)benzyl)pyrrolidine-2-carboxamide]: the values for the Dmax on SMARCA2 [1], on SMARCA4 and at SMARCA2 [2] were less than 50%, 50 to 70% and 50 to 70%, respectively. Also, the DC50 was more than 1000 nM at SMARCA2 [1], more than 1000 nM on SMARCA4 and 501 to 1000 nM at SMARCA2 [2].

Consider `Cc1ncsc1-c1ccc(CNC(=O)[C@@H]2C[C@@H](O)CN2C(=O)[C@@H](NC(=O)C2CC3(C2)CC(N2CCC(c4ccnc(N5CCc6[nH]c7nnc(-c8ccccc8O)cc7c6[C@@H]5C)n4)CC2)C3)C(C)(C)C)cc1` (stereo partly drawn) [I-14, (2S,4R)-4-hydroxy-1-((S)-2-(6-(4-(2-((S)-3-(2-hydroxyphenyl)-5-methyl-7,8-dihydro-5H-pyrido[3′,4′:4,5]pyrrolo[2,3-c]pyridazin-6(9H)-yl)pyrimidin-4-yl)piperidin-1-yl)spiro[3.3]heptane-2-carboxamido)-3,3-dimethylbutanoyl)-N-(4-(4-methylthiazol-5-yl)benzyl)pyrrolidine-2-carboxamide], for which the results for the Dmax on SMARCA2 [1], on SMARCA4 and at SMARCA2 [2] were 70 to 90%, 50 to 70% and 70 to 90%, respectively. Further, the DC50 at SMARCA2 [1] was 100 to 500 nM; at SMARCA4 it was more than 1000 nM; at SMARCA2 [2] it was less than 100 nM.

As for `Cc1ncsc1-c1ccc(CNC(=O)[C@@H]2C[C@@H](O)CN2C(=O)[C@@H](NC(=O)C2CC3(C2)CC(N2CCC(c4cnc(N5CCc6[nH]c7nnc(-c8ccccc8O)cc7c6[C@@H]5C)nc4)CC2)C3)C(C)(C)C)cc1` (stereo partly drawn) [I-37, (2S,4R)-4-hydroxy-1-((S)-2-(6-(4-(2-((S)-3-(2-hydroxyphenyl)-5-methyl-7,8-dihydro-5H-pyrido[3′,4′:4,5]pyrrolo[2,3-c]pyridazin-6(9H)-yl)pyrimidin-5-yl)piperidin-1-yl)spiro[3.3]heptane-2-carboxamido)-3,3-dimethylbutanoyl)-N-(4-(4-methylthiazol-5-yl)benzyl)pyrrolidine-2-carboxamide], on SMARCA2 [1], the Dmax was 70 to 90% and the DC50 lay within 100 to 500 nM. In addition, on SMARCA2 [2], the DC50 fell in the range of 100 to 500 nM and the Dmax is 50 to 70%.

Regarding `Cc1ncsc1-c1ccc(CNC(=O)[C@@H]2C[C@@H](O)CN2C(=O)[C@@H](NC(=O)C2CC3(C2)CC(N2CCC(c4cnc(N5CCc6[nH]c7nnc(-c8ccccc8O)cc7c6[C@H]5C)nc4)CC2)C3)C(C)(C)C)cc1` (stereo partly drawn) [I-38, (2S,4R)-4-hydroxy-1-((S)-2-(6-(4-(2-((R)-3-(2-hydroxyphenyl)-5-methyl-7,8-dihydro-5H-pyrido[3′,4′:4,5]pyrrolo[2,3-c]pyridazin-6(9H)-yl)pyrimidin-5-yl)piperidin-1-yl)spiro[3.3]heptane-2-carboxamido)-3,3-dimethylbutanoyl)-N-(4-(4-methylthiazol-5-yl)benzyl)pyrrolidine-2-carboxamide], the Dmax at SMARCA2 [1] was more than 90%; at SMARCA4, less than 50%; on SMARCA2 [2] it was 70 to 90%. Also, the values for the DC50 at SMARCA2 [1], on SMARCA4 and on SMARCA2 [2] were less than 100 nM, more than 1000 nM and less than 100 nM, respectively.
